In patent EP4667458A1 (Kanaph Therapeutics Inc., priority 2023, dated 2024):

Target: T1, KRAS^G12C::SOS1 (Homo sapiens, UniProt Q07889)
T1 sequence (Q07889 1-1333): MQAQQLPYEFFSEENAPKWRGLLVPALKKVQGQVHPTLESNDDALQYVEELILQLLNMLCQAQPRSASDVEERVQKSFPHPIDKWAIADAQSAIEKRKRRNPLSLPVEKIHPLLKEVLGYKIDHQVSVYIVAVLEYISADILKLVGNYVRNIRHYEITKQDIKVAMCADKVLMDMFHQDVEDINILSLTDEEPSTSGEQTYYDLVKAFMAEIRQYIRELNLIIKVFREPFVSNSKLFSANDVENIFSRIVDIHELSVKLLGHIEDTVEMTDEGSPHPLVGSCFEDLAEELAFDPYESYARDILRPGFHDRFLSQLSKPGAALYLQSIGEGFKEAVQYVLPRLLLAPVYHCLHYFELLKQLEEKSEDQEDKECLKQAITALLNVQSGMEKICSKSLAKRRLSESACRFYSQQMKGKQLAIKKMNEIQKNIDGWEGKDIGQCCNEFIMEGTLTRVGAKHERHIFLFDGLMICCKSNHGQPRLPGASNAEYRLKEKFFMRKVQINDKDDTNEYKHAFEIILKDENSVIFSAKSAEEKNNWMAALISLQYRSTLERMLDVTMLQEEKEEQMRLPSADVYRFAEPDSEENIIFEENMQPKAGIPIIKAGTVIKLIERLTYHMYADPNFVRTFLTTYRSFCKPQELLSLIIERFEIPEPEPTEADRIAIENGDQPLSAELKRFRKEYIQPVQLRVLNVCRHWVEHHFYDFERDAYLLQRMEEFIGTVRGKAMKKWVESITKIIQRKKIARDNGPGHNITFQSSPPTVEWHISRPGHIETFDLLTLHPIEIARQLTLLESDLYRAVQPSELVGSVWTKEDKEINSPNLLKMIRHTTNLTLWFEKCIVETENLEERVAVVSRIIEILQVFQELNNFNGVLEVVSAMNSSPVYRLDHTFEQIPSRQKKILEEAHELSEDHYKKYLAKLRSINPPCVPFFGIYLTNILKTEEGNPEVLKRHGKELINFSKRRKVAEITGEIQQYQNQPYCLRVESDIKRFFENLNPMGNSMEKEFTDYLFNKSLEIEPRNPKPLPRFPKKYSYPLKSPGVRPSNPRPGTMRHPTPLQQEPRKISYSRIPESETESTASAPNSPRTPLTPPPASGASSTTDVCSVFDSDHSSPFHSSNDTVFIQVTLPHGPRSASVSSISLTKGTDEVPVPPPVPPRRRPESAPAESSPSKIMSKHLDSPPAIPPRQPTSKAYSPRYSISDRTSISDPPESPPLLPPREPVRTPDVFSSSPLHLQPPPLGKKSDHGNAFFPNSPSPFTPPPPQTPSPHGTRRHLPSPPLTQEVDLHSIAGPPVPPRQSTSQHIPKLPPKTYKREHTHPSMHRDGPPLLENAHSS
Experiment: KRAS G12C::SOS1 protein-protein interaction (PPI) inhibition assay (HTRF binding kit)
Method: Protein-protein interaction between SOS1 and KRAS^G12C was detected using KRAS G12C/SOS1 binding kit from CISBIO (64KRASG12PEH, CISBIO, FRANCE) according to the manufacturer's assay method. Briefly, the maximum concentration of an inhibitor sample was set to be 3 µM, and the inhibitor sample was diluted 7 times by 1/3, and samples having a total of 8 concentrations were prepared. In HTRF (Homogeneous Time-Resolved Fluorescence) exclusive 96-well low-volume white plate (66PL96005, CISBIO, FRANCE), 2 µL of an inhibitor sample prepared for each concentration, 5 µL of a mixed solution of Tag1-labeled KRAS^G12C protein and GTP diluted with the dilution solution provided by the manufacturer, and 5 µL of Tag2 labeled SOS1 protein were mixed, and added with 8 µL of a diluted solution where anti-Tag1 KRAS^G12C XL665 (HTRF acceptor) labeled antibody and anti-Tag2 SOS1 Terbium cryptate (HTRF donor) labeled antibody were mixed in an equal ratio and incubated at room temperature for 2 h.

Row | SMILES | IC50 [nM]
1 | CNCc1ccccc1-c1csc([C@@H](C)NC(=O)c2ccc(=O)n(-c3ccccc3F)n2)c1 [Example 267, 1-(2-fluorophenyl)-N-[(1R)-1-[4-[2-(methylaminomethyl)phenyl]-2-thienyl]ethyl]-6-oxo-pyridazine-3-carboxamide] | < 1000
2 | CNCc1ccccc1-c1ccc([C@@H](C)NC(=O)c2nn(-c3ccccc3F)c(=O)c3cc[nH]c23)s1 [Example 268, 5-(2-fluorophenyl)-N-[(1R)-1-[5-[2-(methylaminomethyl)phenyl]-2-thienyl]ethyl]-4-oxo-1H-pyrrolo[2,3-d]pyridazine-7-carboxamide] | < 1000
3 | CNCc1ccccc1-c1ccc([C@@H](C)NC(=O)c2nn(-c3ccccc3F)c(=O)c3ccsc23)s1 [Example 269, 5-(2-fluorophenyl)-N-[(1R)-1-[5-[2-(methylaminomethyl)phenyl]-2-thienyl]ethyl]-4-oxo-thieno[2,3-d]pyridazine-7-carboxamide] | < 1000
4 | CNCc1ccc(Cl)cc1-c1ccc([C@@H](C)NC(=O)c2ccc(=O)n(-c3cccnc3F)n2)s1 [Example 270, N-[(1R)-1-[5-[5-chloro-2-(methylaminomethyl)phenyl]-2-thienyl]ethyl]-1-(2-fluoro-3-pyridyl)-6-oxo-pyridazine-3-carboxamide] | < 1000
5 | CNCc1ccc(Cl)cc1-c1ccc([C@@H](C)NC(=O)c2ccc(=O)n(-c3cccnc3NC)n2)s1 [Example 271, N-[(1R)-1-[5-[5-chloro-2-(methylaminomethyl)phenyl]-2-thienyl]ethyl]-1-[2-(methylamino)-3-pyridyl]-6-oxo-pyridazine-3-carboxamide] | < 1000
6 | CNCc1ccc(C)cc1-c1ccc([C@@H](C)NC(=O)c2ccc(=O)n(-c3cccnc3F)c2)s1 [Example 272, 1-(2-fluoro-3-pyridyl)-N-[(1R)-1-[5-[5-methyl-2-(methylaminomethyl)phenyl]-2-thienyl]ethyl]-6-oxo-pyridine-3-carboxamide] | < 1000
7 | CNCc1cc2c(cc1-c1ccc([C@@H](C)NC(=O)c3ccc(=O)n(-c4ccccc4F)c3)s1)CCC2 [Example 273, 1-(2-fluorophenyl)-N-[(1R)-1-[5-[6-(methylaminomethyl)indan-5-yl]-2-thienyl]ethyl]-6-oxo-pyridine-3-carboxamide] | < 1000
8 | CNCc1cc2c(cc1-c1ccc([C@@H](C)NC(=O)c3ccc(=O)n(-c4ccccc4F)n3)s1)CCC2 [Example 274, 1-(2-fluorophenyl)-N-[(1R)-1-[5-[6-(methylaminomethyl)indan-5-yl]-2-thienyl]ethyl]-6-oxo-pyridazine-3-carboxamide] | < 1000
9 | CNCc1ccccc1-c1ccc([C@@H](C)NC(=O)c2nn(-c3cnn(C)c3)c(=O)c3cc[nH]c23)s1 [Example 275, N-[(1R)-1-[5-[2-(methylaminomethyl)phenyl]-2-thienyl]ethyl]-5-(1-methylpyrazol-4-yl)-4-oxo-1H-pyrrolo[2,3-d]pyridazine-7-carboxamide] | < 1000
10 | CNCc1cc2c(cc1-c1ccc([C@@H](C)NC(=O)c3ccc(=O)n(-c4ccccc4F)c3)s1)CC2 [Example 276, 1-(2-fluorophenyl)-N-[(1R)-1-[5-[4-(methylaminomethyl)-3-bicyclo[4.2.0]octa-1,3,5-trienyl]-2-thienyl]ethyl]-6-oxo-pyridine-3-carboxamide] | < 1000
11 | CNCc1ccc(Cl)cc1-c1ccc([C@@H](C)NC(=O)c2ccc(=O)n(-c3cccnc3F)c2)s1 [Example 277, N-[(1R)-1-[5-[5-chloro-2-(methylaminomethyl)phenyl]-2-thienyl]ethyl]-1-(2-fluoro-3-pyridyl)-6-oxo-pyridine-3-carboxamide] | < 1000
12 | CNCc1ccccc1-c1ccc([C@@H](C)NC(=O)c2ccc(=O)n(-c3cnn(C)c3)n2)s1 [Example 278, N-[(1R)-1-[5-[2-(methylaminomethyl)phenyl]-2-thienyl]ethyl]-1-(1-methylpyrazol-4-yl)-6-oxo-pyridazine-3-carboxamide] | < 1000
13 | CNCc1cc(F)ccc1-c1ccc([C@@H](C)NC(=O)c2ccc(=O)n(-c3ccccc3F)n2)s1 [Example 279, N-[(1R)-1-[5-[4-fluoro-2-(methylaminomethyl)phenyl]-2-thienyl]ethyl]-1-(2-fluorophenyl)-6-oxo-pyridazine-3-carboxamide] | < 1000
14 | CNCc1cc(F)ccc1-c1ccc([C@@H](C)NC(=O)c2ccc(=O)n(-c3ccccc3F)c2)s1 [Example 280, N-[(1R)-1-[5-[4-fluoro-2-(methylaminomethyl)phenyl]-2-thienyl]ethyl]-1-(2-fluorophenyl)-6-oxo-pyridine-3-carboxamide] | < 1000
15 | CNCc1cc(Cl)ccc1-c1ccc([C@@H](C)NC(=O)c2ccc(=O)n(-c3ccccc3F)n2)s1 [Example 281, N-[(1R)-1-[5-[4-chloro-2-(methylaminomethyl)phenyl]-2-thienyl]ethyl]-1-(2-fluorophenyl)-6-oxo-pyridazine-3-carboxamide] | < 1000

The next lines start with the values.

Row | IC50 [nM] | SMILES
16 | < 1000 | CNCc1cc(Cl)ccc1-c1ccc([C@@H](C)NC(=O)c2ccc(=O)n(-c3ccccc3F)c2)s1 [Example 282, N-[(1R)-1-[5-[4-chloro-2-(methylaminomethyl)phenyl]-2-thienyl]ethyl]-1-(2-fluorophenyl)-6-oxo-pyridine-3-carboxamide]
17 | < 1000 | CNCc1ccc(Cl)cc1-c1ccc([C@@H](C)NC(=O)c2ccc(=O)n(-c3ccccc3F)c2)s1 [Example 283, N-[(1R)-1-[5-[5-chloro-2-(methylaminomethyl)phenyl]-2-thienyl]ethyl]-1-(2-fluorophenyl)-6-oxo-pyridine-3-carboxamide]
18 | < 1000 | CNCc1ccc(Cl)cc1-c1ccc([C@@H](C)NC(=O)c2ccc(=O)n(-c3cccnc3)n2)s1 [Example 285, N-[(1R)-1-[5-[5-chloro-2-(methylaminomethyl)phenyl]-2-thienyl]ethyl]-6-oxo-1-(3-pyridyl)pyridazine-3-carboxamide]
19 | < 1000 | CNCc1ccc(F)cc1-c1ccc([C@@H](C)NC(=O)c2ccc(=O)n(-c3ccccc3F)n2)s1 [Example 286, N-[(1R)-1-[5-[5-fluoro-2-(methylaminomethyl)phenyl]-2-thienyl]ethyl]-1-(2-fluorophenyl)-6-oxo-pyridazine-3-carboxamide]
20 | < 1000 | CNCc1ccc(F)cc1-c1ccc([C@@H](C)NC(=O)c2ccc(=O)n(-c3ccccc3F)c2)s1 [Example 287, N-[(1R)-1-[5-[5-fluoro-2-(methylaminomethyl)phenyl]-2-thienyl]ethyl]-1-(2-fluorophenyl)-6-oxo-pyridine-3-carboxamide]
21 | < 1000 | CNCc1ccc(F)cc1-c1ccc([C@@H](C)NC(=O)c2ccc(=O)n(-c3cccnc3F)n2)s1 [Example 288, N-[(1R)-1-[5-[5-fluoro-2-(methylaminomethyl)phenyl]-2-thienyl]ethyl]-1-(2-fluoro-3-pyridyl)-6-oxo-pyridazine-3-carboxamide]
22 | < 1000 | CCNCc1ccc(F)cc1-c1ccc([C@@H](C)NC(=O)c2ccc(=O)n(-c3cccnc3F)n2)s1 [Example 289, N-[(1R)-1-[5-[2-(ethylaminomethyl)-5-fluorophenyl]-2-thienyl]ethyl]-1-(2-fluoro-3-pyridyl)-6-oxo-pyridazine-3-carboxamide]
23 | < 1000 | CNCc1ccccc1-c1ccc([C@@H](C)NC(=O)c2nn(-c3cnn(C)c3)c(=O)c3ccsc23)s1 [Example 290, N-[(1R)-1-[5-[2-(methylaminomethyl)phenyl]-2-thienyl]ethyl]-5-(1-methylpyrazol-4-yl)-4-oxo-thieno[2,3-d]pyridazine-7-carboxamide]
24 | < 1000 | CNCc1sccc1-c1cccc([C@@H](C)NC(=O)c2ccc(=O)n(-c3ccccc3F)n2)c1 [Example 291, 1-(2-fluorophenyl)-N-[(1R)-1-[3-[2-(methylaminomethyl)-3-thienyl]phenyl]ethyl]-6-oxo-pyridazine-3-carboxamide]
25 | < 1000 | CNCc1ccc(Cl)cc1-c1ccc([C@@H](C)NC(=O)c2ccc(=O)n(-c3cnn(C)c3)n2)s1 [Example 292, (R)-N-(1-(5-(5-chloro-2-((methylamino)methyl)phenyl)thiophen-2-yl)ethyl)-1-(1-methyl-1H-pyrazol-4-yl)-6-oxo-1,6-dihydropyridazine-3-carboxamide]
